{
  "source": "paper PMC5893615",
  "about": "“Inhibition of homoserine dehydrogenase by formation of a cysteine-NAD covalent complex” (Scientific Reports, 2018)",
  "molecules": {"B1": {"name": "Homoserine dehydrogenase (StHSD) (Sulfurisphaera tokodaii str. 7) (protein)", "chain": "MKLLLFGYGNVGKAFRKLLHEKRSPELNDVIIGGIVTRRGIMLQDKEDFTPDLEGDVFKAFEKIKPDIIVDVSSANYNNGEPSLSLYKEAIKDGVNIITTNKAPLALAFNEIFSLARSKGVKIGFQGTVMSGTPSINLYRVLPGSRVIKIRGILNGTTNFILTLMNKGVSFEEALKEAQRRGYAEEDPTLDINGFDAAAKITILANFMIGNSVTIKDVKFEGINRDLPKNEKIKLIAYADEKEVWVKPLPISQDDPLYNVDGVENALEITTDIQSILIRGPGAGPVNAAYGALSDLILLKRDCL"}},
  "key": {"[1]": {"biological_target": "T1, Homoserine dehydrogenase (StHSD) (Sulfurisphaera tokodaii, UniProt F9VNG5)", "T1 construct": "gene hom", "test": "product inhibition kinetics of homoserine oxidation (double reciprocal plots)", "type": "biochemical"}, "[2]": {"biological_target": "T1, Homoserine dehydrogenase (StHSD)", "test": "crystal structure with cysteine at […] Å; steady-state kinetics (apparent Km)", "type": "biochemical", "settings": "cited from earlier work"}, "[3]": {"biological_target": "T1, Homoserine dehydrogenase (StHSD)", "test": "crystal structure with NAD at […] Å; Ki from Dixon plots of homoserine oxidation by purified enzyme; difference UV spectrum", "type": "biochemical"}, "[4]": {"biological_target": "T1, Homoserine dehydrogenase (StHSD)", "test": "initial velocity and product inhibition kinetics of NAD-dependent oxidation by purified enzyme", "type": "biochemical"}, "[5]": {"substrate": "NC(=O)c1ccc[n+]([C@@H]2O[C@H](COP(=O)([O-])OP(=O)(O)OC[C@H]3O[C@@H](n4cnc5c(N)ncnc54)[C@H](OP(=O)(O)O)[C@@H]3O)[C@@H](O)[C@H]2O)c1", "test": "steady-state kinetics of purified enzyme (apparent Km)", "type": "biochemical, Sulfurisphaera tokodaii", "settings": "Phe49 could exclude the C2′ phosphate group of NADP; varied: cofactor"}},
  "data": [
    {"molecule": "NC(=O)C1=CN([C@@H]2O[C@H](COP(=O)(O)OP(=O)(O)OC[C@H]3O[C@@H](n4cnc5c(N)ncnc54)[C@H](O)[C@@H]3O)[C@@H](O)[C@H]2O)C=CC1", "note": "[NADH]", "values": [
      {"measurement": "product inhibition kinetics of homoserine oxidation (double reciprocal plots)", "setting": "[1]", "value": "which suggests that NADH acts as a competitive inhibitor of NAD"}
    ]},
    {"molecule": "NC(=O)c1ccc[n+]([C@@H]2O[C@H](COP(=O)([O-])OP(=O)(O)OC[C@H]3O[C@@H](n4cnc5c(N)ncnc54)[C@H](O)[C@@H]3O)[C@@H](O)[C@H]2O)c1", "note": "[NAD]", "values": [
      {"measurement": "Km", "setting": "[2]", "value": 330, "unit": "µM"}
    ]},
    {"molecule": "N[C@@H](CS)C(=O)O", "note": "[cysteine]", "values": [
      {"measurement": "Ki", "setting": "[3]", "value": 11, "unit": "µM"}
    ]},
    {"molecule": "N[C@@H](CCO)C(=O)O", "note": "[homoserine]", "values": [
      {"measurement": "initial velocity and product inhibition kinetics of NAD-dependent oxidation by p", "setting": "[4]", "value": "NAD binds to the free form of the enzyme, after which homoserine binds to the enzyme-NAD complex"}
    ]},
    {"molecule": "B1", "values": [
      {"measurement": "Km", "setting": "[5]", "value": 1200, "unit": "µM"}
    ]}
  ]
}
